From patent publication US11717503B2 (priority 2020, dated 2023) come the findings set out here.

Values joined by “and” are separate entries in the source; they are usually repeats but may differ in a detail not shown here. Identical values can stand only once.

Holding throughout (design): species or system C57BL/6 mice
The test system of experiment [1] is H7N9 avian influenza virus. The note with it: mouse, in vivo.
Experiment [2] has as its system H7N9 avian influenza virus. To be noted: mouse, in vivo, po.
Experiment [3] relates to H7N9 avian influenza virus. The note with it: mouse, in vivo. This is another data set of the same source.
For experiment [4], the system named is IL-1β. The note with it: mouse, in vivo, po.
The test system of experiment [5] is IFN-γ. The note with it: mouse, in vivo.

Turning to `CC[C@H](C)[C@H](N)C(=O)O` [Isoleucine, isoleucine], the “Effect on weight loss caused by H7N9 infection (in words)” value (from here on “Effect on weight loss caused”) in experiment [1] is recorded as “did not improve the weight loss”. Moreover, in experiment [2], the Mortality stood at 100%, the “Number of survivals 15 days post infection” value (shortened to “Number”) is on record as 0 and the Survival rate was 0%.
Consider `NCCCC[C@H](N)C(=O)O` [Lysine, lysine], for which, in experiment [1], the “Effect on weight loss caused” value is “alleviated the weight loss”. Also, in experiment [2], the Mortality stood at 90%, the “Number” value is 1 and the Survival rate was determined as 10%.
Turning to `CC(C)[C@H](N)C(=O)O` [Valine, valine], the “Effect on weight loss caused” value in experiment [1] was “alleviated the weight loss”. In addition, the “Effect on proliferation of influenza virus in the lungs (in words)” value in experiment [3] is “significantly reduce the proliferation”. The “Virus content in the lungs (virus titer)” value in experiment [3] (po) is listed as 4.168 ± 0.614 log10EID50/ml. Also, the “IL-1β content in lung homogenate” value in experiment [4] was 691.546 ± 125.531 pg/mL and 512.836 ± 104.971 pg/mL. The “IFN-γ level vs control group (in words)” value in experiment [5] is reported as “significantly higher”. The “IFN-γ content in lung homogenate” value in experiment [5] (po) is 121.927 ± 10.241 pg/mL and 108.583 ± 10.700 pg/mL. In experiment [2], the Mortality is recorded as 60%, the “Number” value worked out at 4 and the Survival rate was determined as 40%.
